Legend:
Settings in all cases: incubation time: 72 h
[1] = system: MDA-MB-453; assay: normalised viability (% of control), CellTiter-Blue; higher = more viable cells (about 100 = DMSO control)
Experimental: (§1)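 DSRT, CellTiter-Blue viability, 72 h incubation. Signal is normalised to DMSO and benzethonium chloride controls. Value is the normalised response at dose 8.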

[2] = system: CAL-148; assay: as above
Experimental: as §1

[3] = system: HDQ-P1; assay: as above
Experimental: as §1

[4] = system: CAL-85-1; assay: as above
Experimental: as §1

[5] = system: CAL-51; assay: as above
Experimental: as §1

[6] = system: DU-4475; assay: as above
Experimental: as §1

[7] = system: MDA-MB-453; assay: as above; remark: listed apart in the source
Experimental: (§2)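 DSRT, CellTiter-Blue viability, 72 h incubation. Signal is normalised to DMSO and benzethonium chloride controls. Value is the normalised response at dose 9.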

[8] = system: CAL-148; assay: as above; remark: listed apart in the source
Experimental: as §2

[9] = system: HDQ-P1; assay: as above; remark: listed apart in the source
Experimental: as §2

[10] = system: CAL-85-1; assay: as above; remark: listed apart in the source
Experimental: as §2

[11] = system: CAL-51; assay: as above; remark: listed apart in the source
Experimental: as §2

[12] = system: DU-4475; assay: as above; remark: listed apart in the source
Experimental: as §2

[13] = system: MDA-MB-436; assay: drug sensitivity score (DSS), CellTox Green (DSS (AUC-based score)); higher = stronger drug effect (viability inhibition or cytotoxicity); extreme values may be limits of the assay
How it was run: (§3)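 The drug sensitivity score was computed from the area under the fitted dose-response curve. Breast cancer cell lines in 20 µl suspension went into 384-well plates holding compound at 5 concentrations (10-fold steps over a 10,000-fold, compound-specific range) for 72 h of incubation. CellTox Green fluorescence (485/520 nm) was read before CellTiter-Glo luminescence, the latter after 10 min at room temperature, and each plate was normalised to 0.1 % DMSO and a positive kill control.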

[14] = system: BT-549; assay: as above
How it was run: as §3

[15] = system: MDA-MB-468; assay: as above
How it was run: as §3

[16] = system: MDA-MB-453; assay: as above
How it was run: as §3

[17] = system: CAL-148; assay: as above
How it was run: as §3

[18] = system: CAL-120; assay: as above
How it was run: as §3

[19] = system: HDQ-P1; assay: as above
How it was run: as §3

[20] = system: HCC1937; assay: as above
How it was run: as §3

[21] = system: CAL-85-1; assay: as above
How it was run: as §3

[22] = system: MCF-10A; assay: as above
How it was run: as §3

[23] = system: CAL-51; assay: as above
How it was run: as §3

[24] = system: MDA-MB-231; assay: as above
How it was run: as §3

[25] = system: DU-4475; assay: as above
How it was run: as §3

[26] = system: MFM-223; assay: as above
How it was run: as §3

[27] = system: Hs578T; assay: as above
How it was run: as §3

Compound	normalised viability ([1]; 3000 nM) [%]	normalised viability ([2]; 3000 nM) [%]	normalised viability ([3]; 3000 nM) [%]	normalised viability ([4]; 3000 nM) [%]	normalised viability ([5]; 3000 nM) [%]	normalised viability ([6]; 3000 nM) [%]	normalised viability ([7]; 10000 nM) [%]	normalised viability ([8]; 10000 nM) [%]	normalised viability ([9]; 10000 nM) [%]	normalised viability ([10]; 10000 nM) [%]	normalised viability ([11]; 10000 nM) [%]	normalised viability ([12]; 10000 nM) [%]	drug sensitivity score [13]	drug sensitivity score [14]	drug sensitivity score [15]	drug sensitivity score [16]	drug sensitivity score [17]	drug sensitivity score [18]	drug sensitivity score [19]	drug sensitivity score [20]	also measured
C=CC(=O)N1CCC[C@@H](n2nc(-c3ccc(Oc4ccccc4)cc3)c3c(N)ncnc32)C1	–	–	–	–	–	–	–	–	–	–	–	–	–	–	–	–	–	–	–	–	normalised viability ([1]; 300 nM): 26.9%; normalised viability ([2]; 300 nM): 84.6%; normalised viability ([3]; 300 nM): 87.5%; normalised viability ([4]; 300 nM): 57.1%; normalised viability ([5]; 300 nM): 85.5%; normalised viability ([6]; 300 nM): 96.1%; normalised viability ([7]; 1000 nM): 26.5%; normalised viability ([8]; 1000 nM): 76.3%; normalised viability ([9]; 1000 nM): 69.1%; normalised viability ([10]; 1000 nM): 49.1%; normalised viability ([11]; 1000 nM): 86.5%; normalised viability ([12]; 1000 nM): 97.8%
CC(=O)Nc1cccc(-n2c(=O)n(C3CC3)c(=O)c3c(Nc4ccc(I)cc4F)n(C)c(=O)c(C)c32)c1	–	–	–	–	–	–	–	–	–	–	–	–	–	–	–	–	–	–	–	–	normalised viability ([1]; 75 nM): 72.8%; normalised viability ([2]; 75 nM): 85.2%; normalised viability ([3]; 75 nM): 47.9%; normalised viability ([4]; 75 nM): 38.8%; normalised viability ([5]; 75 nM): 73.3%; normalised viability ([6]; 75 nM): -1.23%; normalised viability ([7]; 250 nM): 50.9%; normalised viability ([8]; 250 nM): 87.6%; normalised viability ([9]; 250 nM): 63.6%; normalised viability ([10]; 250 nM): 31.2%; normalised viability ([11]; 250 nM): 60.5%; normalised viability ([12]; 250 nM): -1.53%
CCc1cncnc1N1CCN(Cc2nc3ccc(C(F)(F)F)cc3[nH]2)CC1	88.7	104	108	100	88.9	100	54.6	108	110	110	64	91.8	0	0	0	0	0	0	0	0	drug sensitivity score [21]: 0; drug sensitivity score [22]: 0; drug sensitivity score [23]: 0; drug sensitivity score [24]: 0; drug sensitivity score [25]: 0; drug sensitivity score [26]: 0
Cc1cnc(NC(=O)Nc2cc(Br)c(C)cc2OC[C@@H]2CNCCO2)cn1	–	–	–	–	–	–	–	–	–	–	–	–	–	–	–	–	–	–	–	–	normalised viability ([1]; 300 nM): 93.3%; normalised viability ([2]; 300 nM): 107%; normalised viability ([3]; 300 nM): 96.2%; normalised viability ([4]; 300 nM): 88.1%; normalised viability ([5]; 300 nM): 103%; normalised viability ([6]; 300 nM): 102%; normalised viability ([7]; 1000 nM): 65.2%; normalised viability ([8]; 1000 nM): 56.7%; normalised viability ([9]; 1000 nM): 106%; normalised viability ([10]; 1000 nM): 68.3%; normalised viability ([11]; 1000 nM): 89.3%; normalised viability ([12]; 1000 nM): 72%
NCCCNCCSP(=O)(O)O [Amifostine]	96.6	95.1	94.8	91.6	107	110	86.4	95.2	100	89.9	108	90.6	–	–	–	–	–	–	–	–	–
CC[C@H](Nc1ncnc2[nH]cnc12)c1nc2cccc(F)c2c(=O)n1-c1ccccc1 [CAL-101]	79.5	83.3	80.7	76.8	89.3	104	67.4	88.1	61.3	47.5	57.3	-0.99	–	–	–	–	–	–	–	–	–
O=C(O)CCCCC(CCSCc1ccccc1)SCc1ccccc1 (centres undefined) [CPI-613]	–	–	–	–	–	–	–	–	–	–	–	–	0	0	0	0	0	0	0	0	drug sensitivity score [21]: 0.118; drug sensitivity score [22]: 0; drug sensitivity score [23]: 0; drug sensitivity score [27]: 0; drug sensitivity score [24]: 0; drug sensitivity score [25]: 0; drug sensitivity score [26]: 0
Cc1ccc(-c2cc(C(F)(F)F)nn2-c2ccc(S(N)(=O)=O)cc2)cc1 [Celecoxib]	91.7	89.3	83.9	77.6	99.5	96.6	34	55.1	80.3	63.4	90.6	68.5	0	0	0	0	0	0	0	0	drug sensitivity score [21]: 0; drug sensitivity score [22]: 0; drug sensitivity score [23]: 0; drug sensitivity score [24]: 0; drug sensitivity score [25]: 0; drug sensitivity score [26]: 0
O=C(/C=C/c1cccnc1)NCCCCC1CCN(C(=O)c2ccccc2)CC1 [Daporinad]	–	–	–	–	–	–	–	–	–	–	–	–	0	0	0.89	0	0	0	0	10.4	drug sensitivity score [21]: 0; drug sensitivity score [22]: 0; drug sensitivity score [23]: 0; drug sensitivity score [27]: 0; drug sensitivity score [24]: 0; drug sensitivity score [25]: 0; drug sensitivity score [26]: 0
O=C(/C=C/c1cccnc1)NCCCCC1CCN(C(=O)c2ccccc2)CC1 [FK-866]	–	–	–	–	–	–	–	–	–	–	–	–	–	–	–	–	–	–	–	–	normalised viability ([1]; 300 nM): 22.4%; normalised viability ([2]; 300 nM): 45.6%; normalised viability ([3]; 300 nM): 51.6%; normalised viability ([4]; 300 nM): 54%; normalised viability ([5]; 300 nM): 34.6%; normalised viability ([6]; 300 nM): 2.9%; normalised viability ([7]; 1000 nM): 19.9%; normalised viability ([8]; 1000 nM): 44.2%; normalised viability ([9]; 1000 nM): 58.5%; normalised viability ([10]; 1000 nM): 49.2%; normalised viability ([11]; 1000 nM): 34%; normalised viability ([12]; 1000 nM): 3.53%

Source: the supplement of paper PMC4862054
